The record followed here is US12370192B2, “Azole-fused pyridazin-3(2H)-one derivatives” (TAKEDA PHARMACEUTICAL COMPANY LIMITED, priority 2019, dated 2025).

Experiment [1] has as its target T1, human GPR139 receptor (Homo sapiens, UniProt Q6DWJ6).
T1 construct: expressed in transfected cells; host or cells: T-REx-CHO (Thermo Fisher Scientific), doxycycline-induced
T1 sequence (Q6DWJ6 1-353): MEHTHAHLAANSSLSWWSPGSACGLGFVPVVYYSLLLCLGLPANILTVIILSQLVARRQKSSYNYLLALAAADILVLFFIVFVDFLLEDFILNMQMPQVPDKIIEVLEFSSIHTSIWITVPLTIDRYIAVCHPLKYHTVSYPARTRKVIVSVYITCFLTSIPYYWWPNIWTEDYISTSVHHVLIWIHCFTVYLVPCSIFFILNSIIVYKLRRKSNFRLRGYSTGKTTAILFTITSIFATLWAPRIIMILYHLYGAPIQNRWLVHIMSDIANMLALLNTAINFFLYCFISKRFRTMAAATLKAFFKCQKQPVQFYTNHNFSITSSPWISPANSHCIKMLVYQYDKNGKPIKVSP
The experiment is described as follows: GPR139 Competition Binding (membrane-based, tritium-labeled ligand). The note with it: T-REx-CHO membranes with human GPR139; 6.5 nM tritium-labeled ligand; 11-point curve, 30 μM maximum concentration; read-out: GPR139 Binding Affinity (pKi) (converted). The procedure:
OPR139 Competition Binding
This membrane-based assay measures the ability of compounds to competitively bind GPR139 in stably transfected TREx™-CHO membranes. To prepare the membranes, T-REx™-CHO (Thermo Fisher Scientific®) cells are stably expressed with human GPR139 receptor, whose expression is controlled by a tetracycline-inducible element. The cells are cultured in medium containing F-12K nutrient mixture-Kaighn's modification, 10% tetracycline-free FBS, Blasticidin S HCl (10 μg/mL) and Hygromycin B (200 μg/mL). GPR139 receptor expression is induced for 18 hours with 2 μg/mL doxycycline (Sigma D9891) in growth media. After addition of doxycycline, cells are harvested in PBS and pelleted by centrifugation for 5 minutes at 200×G. Liquid is aspirated off and cells are resuspended in ice cold lysis buffer (20 mM HEPES/5 mM EDTA pH 7.4/1× Roche® protease inhibitor). Samples are vortexed until homogenous and then placed on ice and homogenized using a Dounce homogenizer at 50% power (3 cycles, 10 strokes per cycle). Lysate is centrifuged at 4° C. for 10 minutes in a tabletop Sorvall® centrifuge at 2000×G. The supernatant is recovered and centrifuged in a Sorvall® ultracentrifuge at 35,000 rpm for 30 minutes at 4° C. The supernatant is discarded, and the remaining pellet resuspended in lysis buffer (20 mM HEPES/0.1 mM EGTA/Roche® protease inhibitor). Membrane protein concentration is determined using Thermo Fisher® BCA quantification kit and is aliquoted into microtubes. Tubes are snap frozen in liquid nitrogen and stored at −80° C. Prior to use, the membranes are removed from cold storage, thawed to room temperature, vortexed until homogenous and diluted in assay buffer (20 mM HEPES pH 7.3, 5 mM MgCl2, 1 mM CaCl2), 1× Thermo Scientific® Halt™ protease inhibitor (78429)).
The assay is run in 96-well, polypropylene, v-bottom plates (Greiner Bio-One® 651201). Test compound in DMSO is added to the wells of each plate (11-point dose response curve, 30 μM maximum concentration, 3-fold serial dilution). A fixed amount of tritium-labeled ligand, (S)-2-(2,3-dimethyl-7-oxothieno[2,3-d]pyridazin-6(7H)-yl)-N-(1-(4-methoxyphenyl-2-t)propan-2-yl)acetamide (Quotient Bioresearch) in assay buffer (6.5 nM assay concentration) is added to each well of the assay plate, which is then agitated on a plate shaker for 30 seconds. Next, a fixed amount of membranes in assay buffer (2 μg membranes) is added to each well of the assay plate, which is then spun for 30 seconds at 300 rpm in a tabletop Eppendorf centrifuge, and then incubated at room temperature for 20 minutes. Using a Tomtec harvester, the contents of the assay plate are transferred to Filtermat A (PerkinElmer® No. 1450-421) which prior to use is pre-soaked in 0.5% PEI (Sigma P3143) for 3 hours and dried at room temperature overnight. Following transfer, the Filtermat is washed 5 times with cold wash buffer (20 mM HEPES pH 7.3, 100 mM NaCl). The Filtermat is dried using a microwave oven and placed in a sample bag (PerkinElmer® No. 1450-432) with a scintillator sheet (PerkinElmer® No. 1450-411). The scintillator sheet is melted to the Filtermat using a heat block set to 65° C., placed in a MicroBeta® cartridge and read using a MicroBeta® scintillation counter. Binding curves are generated with a four-parameter logistic equation using GraphPad Prism® 6 and the inhibition constant Ki is reported as pKi.

The target of experiment [2] is T1, human GPR139 receptor. In words: Measurement of GPR139 Activation Via Calcium Signaling (FLIPR, T-REx-CHO cells). Type of experiment: cell-based. The conditions noted are these: T-REx-CHO cells stably expressing human GPR139, 11-point dose response, 10 μM maximum concentration, read-out: GPR139 Potency (pEC50) (converted). As to the method:
Measurement of GPR139 Activation Via Calcium Signaling
This cell-based assay measures the ability of compounds to activate GPR139 in stably transfected T-REx™-CHO cells. T-REx™-CHO cells (Thermo Fisher Scientific®) are stably expressed with human GPR139 receptor, whose expression is controlled by a tetracycline-inducible element. The cells are cultured in medium containing F-12K nutrient mixture-Kaighn's modification, TripleLE™ Express (1×)-phenol red, Dulbecco's phosphate-buffered saline (1×), 10% tetracycline-free FBS, Blasticidin S HCl (10 μg/mL) and Hygromycin B (200 μg/mL). The cells are introduced into the wells of a 384-well black clear bottom plate (Costar®) at 10,000 cells/well. GPR139 receptor expression is induced with 2 μg/mL doxycycline (Sigma D9891). The plate is allowed to stand at room temperature for 10-30 minutes and then incubated at 37° C. and 5% CO2 for 17 hours prior to assay.
Culture media is removed from cells and 45 μL of 1× calcium dye (2.5 mM) is added to each well and incubated at 37° C. and 5% CO2 for 40 minutes. The plate is removed from the incubator and allowed to stand at RT for 20 minutes without a plate cover prior to measurement of calcium signaling. The calcium dye is prepared by adding 10 mL of assay buffer (Hank's Balanced Salt Solution (1×), 1 mM HEPES at pH 7.4) to one vial of calcium dye (FLIPR® Calcium 5 Assay Kit; Molecular Devices) at room temperature, vortexing the mixture until homogenous, and transferring the dye to a 250 mL flask using 10 mL of assay, buffer to rinse the vial. The dye is subsequently transferred to a conical flask, which is filled to the 200 mL mark with assay buffer, and 1 mL of […] probenecid solution (142.68 mg/mL in 1M NaOH aq) is added.
Example compounds suspended in DMSO are received from compound management in microtiter plates (0.25 μL/well) and are diluted in assay buffer (25 μL). Following incubation of the cell plate, the Example compounds are added to the cells (11-point dose response, 10 μM maximum concentration) using a FLIPR® Tetra system (Molecular Devices) and fluorescence is measured continuously for 1 minute. EC50 curves are generated with a four-parameter logistic equation using GraphPad Prism® 6, and activation of GPR139 for each example compound is reported as pEC50.

Take `Cc1ccc([C@H](C)NC(=O)Cn2nc(C)c3cnn(-c4ccccc4)c3c2=O)cc1` [Example 1]: the Ki in experiment [1] was 55 nM. Further, the EC50 in experiment [2] is 51.3 nM.
The matching figures for `COc1ccc([C@H](C)NC(=O)Cn2nc(C)c3cnn(-c4ccccc4)c3c2=O)cc1` [Example 2, (S)—N-(1-(4-methoxyphenyl)ethyl)-2-(4-methyl-7-oxo-1-phenyl-1,7-dihydro-6H-pyrazolo[3,4-d]pyridazin-6-yl)acetamide]: 871 nM and 56.2 nM.
As to `Cc1ccc([C@H](C)NC(=O)Cn2nc(C(C)C)c3cnn(-c4ccccc4)c3c2=O)cc1` [Example 3, (S)-2-(4-isopropyl-7-oxo-1-phenyl-1,7-dihydro-6H-pyrazolo[3,4-d]pyridazin-6-yl)-N-(1-(p-tolyl)ethyl)acetamide], in experiment [1], the Ki was 72.4 nM. The EC50 in experiment [2] is at least 10000 nM.
The like results for `CC(C)c1nn(CC(=O)N[C@@H](C)c2ccc(C(F)(F)F)cc2)c(=O)c2c1cnn2-c1ccccc1` [Example 4, (S)-2-(4-isopropyl-7-oxo-1-phenyl-1,7-dihydro-6H-pyrazolo[3,4-d]pyridazin-6-yl)-N-(1-(4-(trifluoromethyl)phenyl)ethyl)acetamide] were, in that order, 91.2 nM and at least 10000 nM.
The like results for `Cc1nn(CC(=O)N[C@@H](C)c2ccc(OC(F)(F)F)cc2)c(=O)c2c1cnn2-c1ccccc1` [Example 5, (S)-2-(4-methyl-7-oxo-1-phenyl-1,7-dihydro-6H-pyrazolo[3,4-d]pyridazin-6-yl)-N-(1-(4-(trifluoromethoxy)phenyl)ethyl)acetamide] were, in that order, 93.3 nM and 224 nM.
For `Cc1ccc([C@H](C)NC(=O)Cn2nc(C)c3cnn(-c4ccccc4)c3c2=O)c(F)c1` [Example 6, (S)—N-(1-(2-fluoro-4-methylphenyl)ethyl)-2-(4-methyl-7-oxo-1-phenyl-1,7-dihydro-6H-pyrazolo[3,4-d]pyridazin-6-yl)acetamide], the Ki in experiment [1] is 23.4 nM. The EC50 in experiment [2] was at least 10000 nM.
The matching figures for `CC(C)c1nn(CC(=O)N[C@@H](C)c2ccc(OC(F)(F)F)cc2)c(=O)c2c1cnn2-c1ccccc1` [Example 7, (S)-2-(4-isopropyl-7-oxo-1-phenyl-1,7-dihydro-6H-pyrazolo[3,4-d]pyridazin-6-yl)-N-(1-(4-(trifluoromethoxy)phenyl)ethyl)acetamide]: 162 nM and at least 10000 nM.
For the compound `Cc1ccc([C@H](C)NC(=O)Cn2nc(C(C)C)c3cnn(-c4ccccc4)c3c2=O)c(F)c1` [Example 8, (S)—N-(1-(2-fluoro-4-methylphenyl)ethyl)-2-(4-isopropyl-7-oxo-1-phenyl-1,7-dihydro-6H-pyrazolo[3,4-d]pyridazin-6-yl)acetamide], the Ki in experiment [1] is 27.5 nM. Further, the EC50 in experiment [2] is at least 10000 nM.
`COc1ccc([C@H](C)NC(=O)Cn2nc(C)c3c(c(C(C)C)nn3C)c2=O)cc1F` [Example 10, (S)—N-(1-(3-fluoro-4-methoxyphenyl)ethyl)-2-(3-isopropyl-1,7-dimethyl-4-oxo-1H-pyrazolo[3,4-d]pyridazin-5(4H)-yl)acetamide]: the Ki in experiment [1] is 120 nM. The EC50 in experiment [2] was 79.4 nM.
In the case of `Cc1ccc([C@H](C)NC(=O)Cn2nc(C(C)C)c3cnn(C(C)(C)C)c3c2=O)cc1` [Example 11, (S)-2-(1-(tert-butyl)-4-isopropyl-7-oxo-1,7-dihydro-6H-pyrazolo[3,4-d]pyridazin-6-yl)-N-(1-(p-tolyl)ethyl)acetamide], the Ki in experiment [1] was 107 nM. Also, the EC50 in experiment [2] was 2750 nM.
The like results for `CC(C)c1nn(CC(=O)N[C@@H](C)c2ccc(C(F)(F)F)cc2)c(=O)c2c1cnn2C(C)(C)C` [Example 12, (S)-2-(1-(tert-butyl)-4-isopropyl-7-oxo-1,7-dihydro-6/1-pyrazolo[3,4-d]pyridazin-6-yl)-N-(1-(4-(trifluoromethyl)phenyl)ethyl)acetamide] were, in that order, 33.9 nM and 2140 nM.
The like results for `Cc1ccc([C@H](C)NC(=O)Cn2nc(C)c3cnn(C(C)(C)C)c3c2=O)cc1` [Example 13, (S)-2-(1-(tert-butyl)-4-methyl-7-oxo-1,7-dihydro-6H-pyrazolo[3,4-d]pyridazin-6-yl)-N-(1-(p-tolyl)ethyl)acetamide] were, in that order, 20.9 nM and 102 nM.
The like results for `Cc1nn(CC(=O)N[C@@H](C)c2ccc(C(F)(F)F)cc2)c(=O)c2c1cnn2C(C)(C)C` [Example 14, (S)-2-(1-(tert-butyl)-4-methyl-7-oxo-1,7-dihydro-6H-pyrazolo[3,4-d]pyridazin-6-yl)-N-(1-(4-(trifluoromethyl)phenyl)ethyl)acetamide] were, in that order, 37.2 nM and 617 nM.
For `C[C@H](NC(=O)Cn1ncc2ccn(C)c2c1=O)c1ccc(C(F)(F)F)cc1` [Example 164, (S)-2-(1-methyl-7-oxo-1,7-dihydro-6H-pyrrolo[2,3-d]pyridazin-6-yl)-N-(1-(4-(trifluoromethyl)phenyl)ethyl)acetamide], the Ki in experiment [1] is 200 nM.
In the case of `Cc1nn(C2CC2)c2cnn(CC(=O)N[C@H](c3ccccc3)C3CC3)c(=O)c12` [Example 173, (S)—N-(cyclopropyl(phenyl)methyl)-2-(1-cyclopropyl-3-methyl-4-oxo-1,4-dihydro-5H-pyrazolo[3,4-d]pyridazin-5-yl)acetamide], the Ki in experiment [1] was 30200 nM.
